In ChEMBL document CHEMBL3865781, “Recent advances in the discovery and development of antibacterial agents targeting the cell-division protein FtsZ” (Bioorg Med Chem, 2016):
In brackets after ≈: the same amount, converted by molar mass.

Legend:
[1] = tested on: Mycobacterium tuberculosis; assay: Antimycobacterial activity against Mycobacterium tuberculosis H37Rv after 2 weeks; assay type: functional; conditions: 336 h
Enterococcus faecalis = assay: Antimicrobial activity against vancomycin-sensitive Enterococcus faecalis after 18 hrs by broth microdilution method; assay type: functional
Escherichia coli [2] = assay: Antibacterial activity against Escherichia coli ATCC 25922 after 18 hrs by broth microdilution method; assay type: functional; conditions: ATCC 25922, 18 h
Klebsiella pneumoniae = assay: Antibacterial activity against Klebsiella pneumoniae ATCC BAA-1144 after 18 hrs by broth microdilution method; assay type: functional; conditions: ATCC BAA-1144, 18 h
Staphylococcus aureus [3] = assay: Antibacterial activity against methicillin-sensitive Staphylococcus aureus after 18 hrs by broth microdilution method; assay type: functional
Staphylococcus aureus [4] = assay: Antibacterial activity against methicillin-resistant Staphylococcus aureus ATCC BAA-41 after 18 hrs by broth microdilution method; assay type: functional; conditions: ATCC BAA-41, 18 h
[5] = Displacement of mant-GTP from Bacillus subtilis FtsZ by spectrofluorometric assay
Bacillus subtilis [6] = assay: Antibacterial activity against Bacillus subtilis; assay type: functional
[7] = tested on: Mycobacterium tuberculosis; assay: Antibacterial activity against Mycobacterium tuberculosis W210 clinical isolates measured every 24 hrs for 7 days by MABA assay; assay type: functional
[8] = tested on: Mycobacterium tuberculosis; assay: Antibacterial activity against Mycobacterium tuberculosis TN587 clinical isolates measured every 24 hrs for 7 days by MABA assay; assay type: functional
[9] = tested on: Mycobacterium tuberculosis; assay: Antibacterial activity against Mycobacterium tuberculosis H37Rv measured every 24 hrs for 7 days by MABA assay; assay type: functional
[10] = tested on: Mycobacterium tuberculosis; assay: Antibacterial activity against Mycobacterium tuberculosis NHN382 clinical isolates measured every 24 hrs for 7 days by MABA assay; assay type: functional
[11] = Inhibition of Escherichia coli FtsZ polymerization expressed in Escherichia coli BL21 assessed as reduction in light scattering intensity in presence of GTP by fluorescence spectrometric analysis
[12] = Inhibition of Escherichia coli FtsZ GTPase activity expressed in Escherichia coli BL21 preincubated for 5 mins followed by GTP addition after 15 mins by malachite green based spectrophotometric analysis
[13] = tested on: Mycobacterium tuberculosis; assay: In vivo antibacterial activity against Mycobacterium tuberculosis str. Erdman infected in C57BL/6 mouse assessed as reduction in bacterial load in lungs at 50 mg/kg, ip bid on day 5 to 14 post infection measured on day 15 post infection; assay type: functional, Erdman = ATCC 35801
[14] = tested on: Mycobacterium tuberculosis; assay: Antibacterial activity against Mycobacterium tuberculosis NHN20 clinical isolates measured every 24 hrs for 7 days by MABA assay; assay type: functional
[15] = tested on: Mycobacterium tuberculosis; assay: In vivo antibacterial activity against Mycobacterium tuberculosis H37Rv infected in GKO-TB mouse assessed as reduction in bacterial load in spleen at 50 mg/kg, ip or po bid for 10 consecutive days; assay type: functional
Escherichia coli [16] = assay: Antibacterial activity against Escherichia coli K12 MG1655 after 4 hrs; assay type: functional; conditions: K-12 substr. MG1655, 4 h
Bacillus subtilis [17] = assay: Antibacterial activity against Bacillus subtilis 168 harboring trpC2 after 4 hrs; assay type: functional; conditions: subsp. subtilis str. 168, 4 h

| SMILES | MIC (Enterococcus faecalis) [mg/L] | MIC (Escherichia coli [2]) [mg/L] | MIC (Klebsiella pneumoniae) [mg/L] | MIC (Staphylococcus aureus [3]) [mg/L] | MIC (Staphylococcus aureus [4]) [mg/L] | also measured |
| --- | --- | --- | --- | --- | --- | --- |
| O=c1ccc2cc(CCO)c(O)cc2o1 | – | – | – | – | – | MIC [1]: 60 mg/L (≈ 291 µM) |
| O=c1ccc2ccccc2o1 [COUMARIN] | 4 to 16 (≈ 27.4 to 109 µM) | 32 to 128 (≈ 219 to 876 µM) | 32 to 128 (≈ 219 to 876 µM) | 2 to 8 (≈ 13.7 to 54.7 µM) | 2 to 8 (≈ 13.7 to 54.7 µM) | – |
| O=C(Oc1cc(OC(=O)c2cc(O)c(O)c(O)c2)c2ccccc2c1)c1cc(O)c(O)c(O)c1 | – | – | – | – | – | Kd [5]: 0.4 to 0.8 µM; MIC (Bacillus subtilis [6]): 100 µM (≈ 46.4 µg/mL) |
| O=C(Oc1cc(OC(=O)c2cc(O)cc(O)c2)c2ccccc2c1)c1cc(O)cc(O)c1 | – | – | – | – | – | Kd [5]: 0.4 to 0.8 µM; MIC (Bacillus subtilis [6]): 25 µM (≈ 10.8 µg/mL) |
| Cc1nc2ccccc2n1C(=O)/C=C/c1ccc(Cl)cc1Cl | 4 to 16 (≈ 12.1 to 48.3 µM) | 32 to 128 (≈ 96.6 to 386 µM) | 32 to 128 (≈ 96.6 to 386 µM) | 2 to 8 (≈ 6.04 to 24.2 µM) | 2 to 8 (≈ 6.04 to 24.2 µM) | – |
| CCCCOC(=O)Nc1cc2nc(C3CCCCC3)[nH]c2cc1N(C)C | – | – | – | – | – | MIC99 [7]: 0.06 mg/L (≈ 0.167 µM); MIC99 [8]: 0.13 mg/L (≈ 0.363 µM); MIC99 [9]: 0.06 mg/L (≈ 0.167 µM); MIC99 [10]: 0.06 mg/L (≈ 0.167 µM) |
| COc1cc(C/C=C(/Cl)Cc2cc(O)cc(O)c2)c(OC)cc1Cl | 4 to 16 (≈ 10.8 to 43.3 µM) | 32 to 128 (≈ 86.7 to 347 µM) | 32 to 128 (≈ 86.7 to 347 µM) | 2 to 8 (≈ 5.42 to 21.7 µM) | 2 to 8 (≈ 5.42 to 21.7 µM) | – |
| O=C(/C=C/c1ccc(O)c(O)c1)O[C@@H]1C[C@](O)(C(=O)O)C[C@@H](O)[C@H]1O [CHLOROGENIC ACID] | 4 to 16 (≈ 11.3 to 45.2 µM) | 32 to 128 (≈ 90.3 to 361 µM) | 32 to 128 (≈ 90.3 to 361 µM) | 2 to 8 (≈ 5.64 to 22.6 µM) | 2 to 8 (≈ 5.64 to 22.6 µM) | IC50 [11]: 69.5 µM |
| Cc1nc2ccccc2n1C(=O)/C=C/c1ccc(F)cc1 | 4 to 16 (≈ 14.3 to 57.1 µM) | 32 to 128 (≈ 114 to 457 µM) | 32 to 128 (≈ 114 to 457 µM) | 2 to 8 (≈ 7.14 to 28.5 µM) | 2 to 8 (≈ 7.14 to 28.5 µM) | – |
| O=C(O)/C=C/c1ccc(O)cc1 [COUMARIC ACID] | 4 to 16 (≈ 24.4 to 97.5 µM) | 32 to 128 (≈ 195 to 780 µM) | 32 to 128 (≈ 195 to 780 µM) | 2 to 8 (≈ 12.2 to 48.7 µM) | 2 to 8 (≈ 12.2 to 48.7 µM) | IC50 [11]: 190 µM |
| O=C(Oc1cc(OC(=O)c2ccc(O)c(Cl)c2)c2ccccc2c1)c1ccc(O)c(Cl)c1 | – | – | – | – | – | MIC (Bacillus subtilis [6]): 13 µM (≈ 6.1 µg/mL) |
| COc1cc2ccc(=O)oc2cc1O [SCOPOLETIN] | 4 to 16 (≈ 20.8 to 83.3 µM) | 32 to 128 (≈ 167 to 666 µM) | 32 to 128 (≈ 167 to 666 µM) | 2 to 8 (≈ 10.4 to 41.6 µM) | 2 to 8 (≈ 10.4 to 41.6 µM) | IC50 [12]: 23 µM; IC50 [11]: 41 µM; MIC [1]: 42 mg/L (≈ 219 µM) |
| O=c1ccc2ccc(O)c(O)c2o1 [DAPHNETIN] | 4 to 16 (≈ 22.5 to 89.8 µM) | 32 to 128 (≈ 180 to 719 µM) | 32 to 128 (≈ 180 to 719 µM) | 2 to 8 (≈ 11.2 to 44.9 µM) | 2 to 8 (≈ 11.2 to 44.9 µM) | IC50 [12]: 57 µM; IC50 [11]: 73 µM |
| O=C(O)/C=C/c1ccccc1 [CINNAMIC ACID] | 4 to 16 (≈ 27 to 108 µM) | 32 to 128 (≈ 216 to 864 µM) | 32 to 128 (≈ 216 to 864 µM) | 2 to 8 (≈ 13.5 to 54 µM) | 2 to 8 (≈ 13.5 to 54 µM) | IC50 [11]: 239 µM |
| CN(C)c1cc2[nH]c(C3CCCCC3)nc2cc1NC(=O)c1ccc(C(F)(F)F)cc1F | – | – | – | – | – | MIC99 [7]: 0.31 mg/L (≈ 0.691 µM); Activity [13]: 5.7 - 6.3 log10CFU; MIC99 [14]: 0.16 mg/L (≈ 0.357 µM); MIC99 [8]: 0.24 mg/L (≈ 0.535 µM); Activity [15]: 3.9 - 5 log10CFU; MIC99 [9]: 0.18 mg/L (≈ 0.401 µM); MIC99 [10]: 0.16 mg/L (≈ 0.357 µM) |
| COc1cc(/C=C/C(=O)CC(=O)/C=C/c2ccc(O)c(OC)c2)ccc1O [CURCUMIN] | 4 to 16 (≈ 10.9 to 43.4 µM) | 32 to 128 (≈ 86.9 to 347 µM) | 32 to 128 (≈ 86.9 to 347 µM) | 2 to 8 (≈ 5.43 to 21.7 µM) | 2 to 8 (≈ 5.43 to 21.7 µM) | IC50 (Escherichia coli [16]): 58 µM; IC50 (Bacillus subtilis [17]): 17 µM |
| Oc1ccc(/C=C/c2cc(O)cc(O)c2)cc1 [RESVERATROL] | 4 to 16 (≈ 17.5 to 70.1 µM) | 32 to 128 (≈ 140 to 561 µM) | 32 to 128 (≈ 140 to 561 µM) | 2 to 8 (≈ 8.76 to 35 µM) | 2 to 8 (≈ 8.76 to 35 µM) | – |
